Earlier results, collected in patent US20070232669A1, “N-phenylbenzotriazolyl c-kit inhibitors” (priority 2006, published 2007).
Structures can show the parent of a compound that is named as a salt.

Tests used:
[1] = tested on: MO7e human leukemia cells
[2] = tested on: MO7e human leukemia cells; remark: listed apart in the source

In the case of Cc1ccc(NC(=O)c2ccc(CN3CCN(C)CC3)cc2)cc1Nc1nccc(-c2cccnc2)n1 [Gleevec, imatinib mesylate], the “GM-CSF stimulated growth of MO7e human leukemia cells” value [1] is listed as “not affected” and the “Kit ligand-stimulated growth of MO7e human leukemia cells” value [2] is listed as “inhibited”.
